Measured values published in patent US20250333407A1, “Compounds and Their Use for Treatment of Hemoglobinopathies” (Bristol-Myers Squibb Company, priority 2024, published 2025).

Key:
Format in all cases: cell-based
HbF = HbF HiBiT induction assay in HUDEP-2 cells; details: HUDEP-2 cells with HiBiT tag in HBG1/2, 72 hours of treatment; area under the dose response curve, higher AUC = greater HbF induction
Procedure, shortened: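 HUDEP-2 cells carrying a HiBiT tag on HBG1/2 were exposed to compounds for 72 h at 37° C, 5% CO2, in IMDM with EPO, hSCF, DOX, transferrin, insulin, heparin and 5% human plasma. HiBiT luminescence was read after lytic detection; HbF induction is expressed as dose-response AUC, alongside EC50 and Ymax.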

WIZ = target: T1, WIZ (Homo sapiens, UniProt O95785+Q96SW2); test: HUDEP-2 WIZ HiBiT degradation assay; details: HiBiT-tagged WIZ degradation in HUDEP-2 cells, 24 hours of treatment; read-out: WIZ EC50
T1 construct: HUDEP-2 cells engineered to express a HiBiT tag in either the WIZ (Widely interspaced zinc finger) or ZBTB7A
T1 sequence (O95785 whole entry): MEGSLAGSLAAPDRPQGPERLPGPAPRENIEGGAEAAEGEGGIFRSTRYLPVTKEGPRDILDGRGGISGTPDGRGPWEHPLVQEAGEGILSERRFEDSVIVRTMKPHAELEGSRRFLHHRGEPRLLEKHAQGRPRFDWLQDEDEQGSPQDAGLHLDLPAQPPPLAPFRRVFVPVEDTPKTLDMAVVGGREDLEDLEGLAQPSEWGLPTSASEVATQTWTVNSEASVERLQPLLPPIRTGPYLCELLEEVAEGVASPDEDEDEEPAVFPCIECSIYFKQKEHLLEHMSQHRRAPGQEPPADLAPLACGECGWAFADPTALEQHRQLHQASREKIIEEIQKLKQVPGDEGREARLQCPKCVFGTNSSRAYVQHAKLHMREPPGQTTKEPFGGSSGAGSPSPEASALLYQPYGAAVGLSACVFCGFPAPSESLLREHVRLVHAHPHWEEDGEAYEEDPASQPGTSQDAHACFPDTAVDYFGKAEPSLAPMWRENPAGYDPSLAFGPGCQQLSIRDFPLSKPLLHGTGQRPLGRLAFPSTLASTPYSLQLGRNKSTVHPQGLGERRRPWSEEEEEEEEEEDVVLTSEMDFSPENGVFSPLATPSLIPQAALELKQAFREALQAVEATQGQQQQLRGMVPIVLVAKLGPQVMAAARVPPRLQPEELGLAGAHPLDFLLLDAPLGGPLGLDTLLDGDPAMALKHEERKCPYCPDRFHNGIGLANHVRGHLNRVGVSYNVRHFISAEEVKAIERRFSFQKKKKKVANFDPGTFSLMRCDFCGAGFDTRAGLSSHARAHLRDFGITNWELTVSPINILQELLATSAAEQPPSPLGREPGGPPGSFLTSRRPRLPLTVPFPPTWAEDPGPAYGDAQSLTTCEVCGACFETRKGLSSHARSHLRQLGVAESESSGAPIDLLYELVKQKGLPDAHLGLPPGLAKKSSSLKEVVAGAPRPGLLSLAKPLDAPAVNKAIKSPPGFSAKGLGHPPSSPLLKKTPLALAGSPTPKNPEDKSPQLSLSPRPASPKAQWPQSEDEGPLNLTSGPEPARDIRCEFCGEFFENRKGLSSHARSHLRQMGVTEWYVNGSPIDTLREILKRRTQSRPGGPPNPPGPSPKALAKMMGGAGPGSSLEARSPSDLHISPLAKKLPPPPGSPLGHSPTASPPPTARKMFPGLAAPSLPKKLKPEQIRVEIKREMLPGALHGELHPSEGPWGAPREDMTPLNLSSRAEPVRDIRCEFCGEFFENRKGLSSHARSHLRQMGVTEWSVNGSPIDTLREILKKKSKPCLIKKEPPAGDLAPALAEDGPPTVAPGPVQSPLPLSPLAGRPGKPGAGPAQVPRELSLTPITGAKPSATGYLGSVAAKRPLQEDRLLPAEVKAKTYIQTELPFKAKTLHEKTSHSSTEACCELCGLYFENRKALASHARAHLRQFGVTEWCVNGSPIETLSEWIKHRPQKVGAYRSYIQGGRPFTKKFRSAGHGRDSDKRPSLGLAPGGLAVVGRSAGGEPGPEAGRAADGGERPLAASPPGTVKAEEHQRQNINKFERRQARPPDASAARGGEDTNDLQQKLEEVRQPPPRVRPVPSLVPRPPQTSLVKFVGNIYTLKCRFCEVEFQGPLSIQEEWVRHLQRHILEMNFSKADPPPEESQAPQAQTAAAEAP
T1 sequence (Q96SW2 whole entry): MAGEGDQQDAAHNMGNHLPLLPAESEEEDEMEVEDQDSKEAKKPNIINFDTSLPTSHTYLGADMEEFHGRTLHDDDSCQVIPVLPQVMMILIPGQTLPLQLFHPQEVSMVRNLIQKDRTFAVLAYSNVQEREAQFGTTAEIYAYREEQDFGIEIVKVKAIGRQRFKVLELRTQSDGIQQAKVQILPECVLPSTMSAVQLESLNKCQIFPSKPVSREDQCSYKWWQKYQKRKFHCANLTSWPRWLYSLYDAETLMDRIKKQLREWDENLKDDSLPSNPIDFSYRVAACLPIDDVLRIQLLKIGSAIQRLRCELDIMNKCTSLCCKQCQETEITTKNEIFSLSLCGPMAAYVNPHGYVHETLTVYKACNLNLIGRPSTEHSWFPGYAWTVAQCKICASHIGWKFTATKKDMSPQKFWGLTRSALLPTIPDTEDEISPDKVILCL
T1 sequence (Q16531 whole entry partner): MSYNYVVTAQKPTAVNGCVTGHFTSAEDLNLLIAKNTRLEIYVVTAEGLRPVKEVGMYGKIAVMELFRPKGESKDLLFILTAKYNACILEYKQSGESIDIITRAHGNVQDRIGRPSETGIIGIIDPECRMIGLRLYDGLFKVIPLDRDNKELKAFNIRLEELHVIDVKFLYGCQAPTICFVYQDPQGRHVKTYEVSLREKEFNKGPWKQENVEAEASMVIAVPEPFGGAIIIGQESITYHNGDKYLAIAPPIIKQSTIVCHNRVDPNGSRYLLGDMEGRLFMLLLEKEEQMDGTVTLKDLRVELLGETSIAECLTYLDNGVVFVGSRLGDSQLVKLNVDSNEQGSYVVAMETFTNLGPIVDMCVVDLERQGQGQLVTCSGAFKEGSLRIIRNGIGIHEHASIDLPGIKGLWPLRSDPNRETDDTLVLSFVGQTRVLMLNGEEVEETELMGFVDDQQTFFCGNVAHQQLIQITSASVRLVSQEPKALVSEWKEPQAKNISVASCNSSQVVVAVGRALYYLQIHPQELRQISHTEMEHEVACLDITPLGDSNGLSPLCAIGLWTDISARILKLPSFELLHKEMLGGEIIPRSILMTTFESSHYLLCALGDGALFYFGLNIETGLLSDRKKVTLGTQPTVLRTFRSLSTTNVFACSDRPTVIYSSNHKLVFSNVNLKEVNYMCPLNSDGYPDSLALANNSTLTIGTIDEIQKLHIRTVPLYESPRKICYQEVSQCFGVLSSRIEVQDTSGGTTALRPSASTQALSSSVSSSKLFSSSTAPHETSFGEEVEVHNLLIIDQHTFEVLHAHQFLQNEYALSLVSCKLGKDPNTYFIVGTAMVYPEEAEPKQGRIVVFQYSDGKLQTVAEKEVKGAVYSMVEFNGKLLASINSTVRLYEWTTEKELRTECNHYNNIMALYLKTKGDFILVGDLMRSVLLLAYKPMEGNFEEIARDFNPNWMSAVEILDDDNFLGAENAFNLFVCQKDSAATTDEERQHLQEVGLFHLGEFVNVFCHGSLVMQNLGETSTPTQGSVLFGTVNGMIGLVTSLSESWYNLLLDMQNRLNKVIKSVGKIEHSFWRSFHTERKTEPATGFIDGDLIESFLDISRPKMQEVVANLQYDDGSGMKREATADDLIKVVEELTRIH
Procedure, shortened: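 HiBiT-tagged HUDEP-2 cells at 1.0×10^6 cells/ml in SFEM II with SCF, EPO, dexamethasone and doxycycline, treated 24 h at 37 °C with a 10-point series ([…]). Luminescence after HiBiT lytic detection, normalized to DMSO; EC50 and Y-min from fitted curves.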

ZBTB7A = target: T2, ZBTB7A (Homo sapiens, UniProt O95365+Q96SW2); test: HUDEP-2 ZBTB7A HiBiT degradation assay; details: HiBiT-tagged ZBTB7A degradation in HUDEP-2 cells, 24 hours of treatment; read-out: ZBTB7A EC50
T2 construct: HUDEP-2 cells engineered to express a HiBiT tag in either the WIZ (Widely interspaced zinc finger) or ZBTB7A
T2 sequence (O95365 whole entry): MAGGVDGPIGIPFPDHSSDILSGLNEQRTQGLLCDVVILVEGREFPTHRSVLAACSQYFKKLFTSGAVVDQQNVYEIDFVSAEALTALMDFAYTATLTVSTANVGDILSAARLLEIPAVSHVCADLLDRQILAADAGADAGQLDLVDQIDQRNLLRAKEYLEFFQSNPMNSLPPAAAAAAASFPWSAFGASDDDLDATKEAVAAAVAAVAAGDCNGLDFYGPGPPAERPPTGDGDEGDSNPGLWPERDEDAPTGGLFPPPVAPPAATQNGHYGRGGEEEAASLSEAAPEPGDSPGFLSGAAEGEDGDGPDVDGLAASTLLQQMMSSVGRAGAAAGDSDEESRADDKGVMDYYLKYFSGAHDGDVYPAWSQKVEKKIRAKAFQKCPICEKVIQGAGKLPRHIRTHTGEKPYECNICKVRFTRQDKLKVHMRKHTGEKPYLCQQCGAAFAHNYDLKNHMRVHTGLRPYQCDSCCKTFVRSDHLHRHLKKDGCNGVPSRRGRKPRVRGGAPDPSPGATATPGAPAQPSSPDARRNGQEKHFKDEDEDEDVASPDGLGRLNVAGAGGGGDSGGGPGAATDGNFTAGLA
T2 sequence (Q96SW2 whole entry): as the sequence (Q96SW2 whole entry) above
T2 sequence (Q16531 whole entry partner): as the sequence (Q16531 whole entry partner) above
Procedure, shortened: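 HiBiT-tagged HUDEP-2 cells were pre-cultured 48 h in IMDM with EPO, SCF, doxycycline and 5% human plasma, then exposed to compounds at 1.0×10^6 cells/ml for 24 h at 37 °C. Nano-Glo HiBiT lytic luminescence, normalised to DMSO over 10 concentrations, gave EC50 and Y-min.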

COc1ccc(-c2cc3c(cc2Nc2cccc4c2C(=O)N([C@H]2CCC(=O)NC2=O)C4=O)N(C)C(=O)[C@@H](C)O3)cn1 [Compound 39, 2-((S)-2,6-dioxopiperidin-3-yl)-4-(((R)-7-(6-methoxypyridin-3-yl)-2,4-dimethyl-3-oxo-3,4-dihydro-2H-benzo[b][1,4]oxazin-6-yl)amino)isoindoline-1,3-dione]
HBF AUC (HbF): + (+ = 15 ≤ AUC < 100)
DC50 (WIZ): 0.013 µM
DC50 (ZBTB7A): 0.016 µM

Cc1cc(-c2cc3c(cc2Nc2cccc4c2C(=O)N([C@H]2CCC(=O)NC2=O)C4=O)N(C)C(=O)[C@@H](C)O3)cc(C(F)F)n1 [Compound 49, 4-(((R)-7-(2-(difluoromethyl)-6-methylpyridin-4-yl)-2,4-dimethyl-3-oxo-3,4-dihydro-2H-benzo[b][1,4]oxazin-6-yl)amino)-2-((S)-2,6-dioxopiperidin-3-yl)isoindoline-1,3-dione]
HBF AUC (HbF): ++ (++ = 100 ≤ AUC < 150)
DC50 (WIZ): 0.039 µM
DC50 (ZBTB7A): 0.071 µM

Cc1cc(-c2c(Nc3cccc4c3C(=O)N(C3CCC(=O)NC3=O)C4=O)cc3c(c2F)OCC(=O)N3C)ccn1 (stereo not drawn) [Compound 81, 2-(2,6-dioxopiperidin-3-yl)-4-((8-fluoro-4-methyl-7-(2-methylpyridin-4-yl)-3-oxo-3,4-dihydro-2H-benzo[b][1,4]oxazin-6-yl)amino)isoindoline-1,3-dione]
HBF AUC (HbF): ++ (++ = 100 ≤ AUC < 150)
DC50 (WIZ): 0.024 µM
DC50 (ZBTB7A): 0.028 µM

Cc1cc(-c2cc3c(cc2Nc2cccc4c2C(=O)N([C@@H]2CCC(=O)NC2=O)C4=O)N(C)C(=O)CO3)ccn1 [Compound 59, (R)-2-(2,6-dioxopiperidin-3-yl)-4-((4-methyl-7-(2-methylpyridin-4-yl)-3-oxo-3,4-dihydro-2H-benzo[b][1,4]oxazin-6-yl)amino)isoindoline-1,3-dione]
HBF AUC (HbF): +++ (+++ = AUC ≥ 150)
DC50 (WIZ): 0.008 µM
DC50 (ZBTB7A): 0.01 µM
